PubChem BioAssay (NCI)
Several values for one entry are separate records, joined by “and”; a condition that tells them apart may be missing. Equal values may be shown once.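 Assay format: 96-well plates, 48-hour exposure. GI50 is the concentration that inhibits growth by half. TGI denotes the concentration required for complete inhibition of growth.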

Legend:
Experiment in all cases: NCI tumour cell line growth inhibition, 48 h
[1] = test system: A549 NSCLC
[2] = test system: CCRF-CEM leukemia
[3] = test system: HT29 colon
[4] = test system: IGROV1 ovarian
[5] = test system: OVCAR-3 ovarian
[6] = test system: SF-295 CNS
[7] = test system: SK-MEL-5 melanoma
[8] = test system: TK-10 renal

| Structure (SMILES) | GI50 [1] | TGI [1] | GI50 [2] | TGI [2] | GI50 [3] | TGI [3] | GI50 [4] | TGI [4] | GI50 [5] | TGI [5] | GI50 [6] | TGI [6] | GI50 [7] | TGI [7] | GI50 [8] | TGI [8] |
| --- | --- | --- | --- | --- | --- | --- | --- | --- | --- | --- | --- | --- | --- | --- | --- | --- |
| COc1ccc(/C(=N\O)c2cc(OC)c(OC)c(OC)c2)c(OC)c1N | 6.26 µM | > 100 µM | 3.54 µM | > 100 µM | 3.4 µM | > 100 µM | 6.83 µM | > 100 µM | 2.53 µM | 7.8 µM | 2.37 µM | > 100 µM | 5.32 µM | > 100 µM | > 100 µM | > 100 µM |
| CC(C)=CC(O)C/C(C)=C/CC/C(C)=C/CCC1(C)C(CCCO)/C(=C(/C)C=O)CCC1(C)O (centres undefined) |  | > 100 µM |  | > 100 µM |  | 70.9 µM |  | 61.7 µM |  | > 100 µM |  | > 100 µM |  | > 100 µM |  | > 100 µM |
| O=C(Nc1cccnc1)c1cccc([N+](=O)[O-])c1 | > 100 µM | > 100 µM | > 100 µM | > 100 µM | > 100 µM | > 100 µM | > 100 µM | > 100 µM | > 100 µM | > 100 µM | > 100 µM | > 100 µM | > 100 µM | > 100 µM | > 100 µM | > 100 µM |
| CC1CC(C)/C(=N/NC(N)=O)C(C(O)CC2CCC(=O)NC2=O)C1 (centres undefined) | 2.36 µM | 56.7 µM | 2 µM | 97.2 µM | 3.49 µM | > 100 µM | 2.64 µM | 56.5 µM | 5.54 µM | 48.1 µM | 1.68 µM | 13.5 µM | 2.85 µM | 34.8 µM | 1.64 µM | 10.2 µM |
| C#C[C@@]1(O)CCCC2=CC(=O)C[C@]21C |  | > 100 µM |  | > 100 µM |  | > 100 µM |  | > 100 µM |  | > 100 µM |  | > 100 µM |  | > 100 µM |  | > 100 µM |
| c1ccc2c(-c3nc4ccccc4[nH]3)cccc2c1 | 4.36 µM | > 100 µM | 2.54 µM | 7.81 µM | 2.68 µM | 11.8 µM | 5.01 µM | 40.3 µM | 2.17 µM | 6.89 µM | 2.98 µM | 29.1 µM | 4.28 µM | 72.4 µM | 8.15 µM | 55.7 µM |
| Oc1ccc2ccccc2c1C(c1ccc(Cl)cc1)c1c(O)ccc2ccccc12 |  | 10.8 µM |  | 7.46 µM |  | 9.78 µM |  | 7.65 µM |  | 9.06 µM |  | 12.7 µM |  | 6.93 µM |  | 11.1 µM |
| O=c1oc2ccc(F)cc2c(=O)n1-c1ccc(Cl)cc1F | 2.17 µM | > 100 µM | 2.62 µM | 13 µM | 3.29 µM | > 34.2 µM | 0.532 µM | > 45.8 µM | 0.55 µM | 12.5 µM | 1.82 µM | 3.66 µM | 0.29 µM | 0.89 µM | 3.73 µM | 12.2 µM |
| C/C1=C\CC[C@@]2(C)O[C@@H]2C[C@@H]2[C@H](C/C(C)=C/CC1)OC(=O)C21CCN=N1 (some centres undefined) | > 100 µM | 75 µM and > 100 µM | 44.9 µM | 75 µM and > 100 µM | > 100 µM | > 100 µM | > 100 µM | > 100 µM | > 100 µM | > 100 µM | > 100 µM | 75 µM and > 100 µM | > 100 µM | 75 µM and > 100 µM | > 100 µM | > 100 µM |
| COc1cc(C(=O)N2CCN(c3ccccc3OC)CC2)c(N)cc1OCc1ccccc1 | 34.8 µM | > 100 µM | 34.7 µM | 98.3 µM | 31.3 µM | > 100 µM | 28.5 µM | > 100 µM | 22.1 µM | 58.8 µM | 40.3 µM | > 100 µM | 16.5 µM | 31.4 µM | 31.9 µM | 73.2 µM |
| COc1ccc(Cn2cc3c(c2-c2ccc(O)cc2)CCc2cnoc2-3)cc1 | 0.477 µM | 18.4 µM | 0.304 µM | 4.2 µM | 0.587 µM | 4.79 µM | 0.578 µM | 23.6 µM | 0.221 µM | 0.557 µM | 0.225 µM | 2.49 µM | 0.315 µM | 12.6 µM | 0.603 µM | 24.4 µM |
| C=C(C)[C@@H]1CC[C@]2(C(=O)O)CC[C@]3(C)[C@H](CC[C@@H]4[C@@]5(C)C[C@@H](CC#Cc6ccc(Br)cc6)C(=O)C(C)(C)[C@@H]5CC[C@]43C)[C@@H]12 | 2.8 µM | > 100 µM | 3.57 µM | > 100 µM | 4.83 µM | > 100 µM | 4.07 µM | 24.9 µM | 4.73 µM | > 100 µM | 12.6 µM | 81.1 µM | 34.2 µM | > 100 µM | 23.7 µM | > 100 µM |
| CC(=O)Nc1ccc2c(c1)C(=O)c1cccc(F)c1-2 |  | > 100 µM |  | > 100 µM |  | > 100 µM |  | > 100 µM |  | > 100 µM |  | > 100 µM |  | > 100 µM |  | > 100 µM |
| O=C(N/N=c1/ccoc2cccnc12)N1CCN(c2ncccn2)CC1 | 0.324 µM | 9.81 µM | < 0.01 µM | > 54.4 µM | < 0.01 µM | 7.39 µM | < 0.01 µM | 7.98 µM | < 0.01 µM | 4.46 µM | 0.268 µM | 6.03 µM | 0.383 µM | 2.97 µM | 0.992 µM | 8.08 µM |
| Cn1c(=O)c2[nH]c(C3CC(=O)CC(c4nc5c([nH]4)c(=O)n(C)c(=O)n5C)N3)nc2n(C)c1=O (centres undefined) |  | > 100 µM |  | > 100 µM |  | > 100 µM |  | > 100 µM |  | > 100 µM |  | > 100 µM |  | > 100 µM |  | > 100 µM |
| COC(=O)c1oc2c(O)c(OC)c(Br)cc2c1C | 25 µM | 74.1 µM | 25 µM | 67.6 µM | 15.7 µM | 30.4 µM | 32.7 µM | 91.6 µM | 23.6 µM | 43.5 µM | 31 µM | 70.2 µM | 22.2 µM | 43.5 µM | 18.3 µM | 40 µM |
| Cc1nc(N)sc1N=Nc1cc(Cl)c([N+](=O)[O-])cc1Cl |  | 31.5 µM |  | 35 µM |  | 28.7 µM |  | 47.2 µM |  | 40 µM |  | 54.6 µM |  | 19.4 µM |  | 52.1 µM |
